From patent US20250122223A1, “HETEROCYCLIC COMPOUNDS AS UBIQUITIN SPECIFIC PROTEASE 7 INHIBITORS” (ALMAC DISCOVERY LIMITED, priority 2022, published 2025)
In brackets after ≈: the same amount, converted by molar mass.

Columns and labels:
[1] = biological target: T1, USP7 (Homo sapiens (Human), UniProt Q93009); experiment: USP7 fluorescence polarisation (FP) assay with ubiquitin-Lys-TAMRA substrate; format: biochemical
[2] = biological target: T1, USP7; experiment: Target engagement assay-HTRF, competition with HA-Ub-VPS probe in HEK293 cells stably expressing Flag-tagged USP7; format: cell-based; settings: HEK293 stable clone M6C5, 2 h treatment; read-out: Cellular target engagement: HEK293 Stable clone M6C5 USP7 IC50
Description: HEK293 cells stably expressing Flag-tagged USP7 were treated with vehicle (DMSO) or compound (using 50 μM starting concentration and 11 dp using 1:3 serial dilution) for 2 h and subsequently lysed on ice and homogenised. Cell lysate and HA-Ub-VPS probe was then added to a white flat bottomed 384 well plate (Greiner) to a total volume of 10 μL and incubated for 40 min. 10 μL of D2 and Tb detection antibodies were subsequently added to give a final assay volume of 20 μL. Following incubation, HTRF were measured using a Pherastar FSX (BMG Labtech) exciting at 337 nm and measuring the emission at 620/665 nm. The HTRF ratiometric signal was derived and subsequently normalised to the lysate only controls. Data were plotted and fitted, and the concentrations resulting in 50% inhibition (IC50) were calculated using the non-linear regression curve fitting model using GraphPad Prism. IC50 values for the inhibitors of the invention are compiled in Table 1 above and represent the average of at least duplicate experiments.

[3] = Kinetic solubility in PBS buffer; format: physicochemical; settings: aqueous buffer, kinetic from dmso stock; PBS buffer pH 7.4
Description: Test compounds (5 μL; 10 mM DMSO stock) were added to 245 μL of PBS buffer pH 7.4 (Dulbecco A) in a Millipore MultiScreen® Solubility Filter plate and mixed at 300 rpm at room temperature on a plate shaker for 90 minutes. Meanwhile 5-points calibration curves for each compound were established in a mixture of acetonitrile/PBS buffer (top concentration 200 μM). After filtration and matrix match, the calibration and assay plates were analysed on a BMG Labtech CLARIOstar plate reader (240-400 nm). Final concentration of the test compound in the filtrate was calculated using the slope of the calibration curve.

[4] = CLint/CLhep estimates using liver microsomes (human); format: in vitro ADME
Description: (§1) Test compounds (final concentration=1 μM; final DMSO concentration=0.1%) were incubated in 0.1M phosphate buffer pH 7.4 with liver microsomes (human, mouse, rat or dog; 0.5 mg of protein/mL) at 37° C. Reactions were started by addition of NADPH in 0.1M phosphate buffer pH 7.4 (final concentration 1 mM). 40 μL aliquots were removed at 3, 6, 10, 15, 20, 30, 40 and 50 minutes. Reactions were quenched in 80 μL of ice-cold methanol. Samples were subsequently frozen overnight then centrifuged at 3500 rpm for 20 minutes at 4° C. The supernatants were removed and transferred into analytical plates and analysed by LC/MS/MS.
(§2) All samples were analysed on a Waters Acquity I-Class coupled to a Waters Xevo TQD mass spectrometer. A Waters BEH C18 2.1×50 mm 1.7 μm column was used and mobile phases were water and methanol containing 0.1% formic acid as modifier. Analysis was by multiple reaction monitoring and conditions were optimised for each test compound.
(§3) From a plot of In peak area against time, the gradient of the line is determined.
(§4) Subsequently, half-life and intrinsic clearance are calculated using the equations below: […]
(§5) The CLhep was calculated as follows: […]
(§6) Where CLint (mL/min/kg) is the intrinsic clearance scaled to a whole liver and Qh is hepatic liver blood flow.

[5] = CLint/CLhep estimates using liver microsomes (rat); format: in vitro ADME
Description: as §1, §2, §3, §4, §5, §6

[6] = CLint/CLhep estimates using liver microsomes (mouse); format: in vitro ADME
Description: as §1, §2, §3, §4, §5, §6

[7] = CLint/CLhep estimates using liver microsomes (dog); format: in vitro ADME
Description: as §1, §2, §3, §4, §5, §6

[8] = average of at least duplicate experiments, read-out: Biochemical: USP7 IC50
[9] = biochemical inhibition, read-out: USP7 IC50 activity (Table 3a, classes)
[10] = biochemical inhibition, unit not given in Table 3b (Table 1 and key of Table 3a use μM), read-out: USP7 IC50 activity (Table 3b)

T1 sequence (Q93009 whole entry): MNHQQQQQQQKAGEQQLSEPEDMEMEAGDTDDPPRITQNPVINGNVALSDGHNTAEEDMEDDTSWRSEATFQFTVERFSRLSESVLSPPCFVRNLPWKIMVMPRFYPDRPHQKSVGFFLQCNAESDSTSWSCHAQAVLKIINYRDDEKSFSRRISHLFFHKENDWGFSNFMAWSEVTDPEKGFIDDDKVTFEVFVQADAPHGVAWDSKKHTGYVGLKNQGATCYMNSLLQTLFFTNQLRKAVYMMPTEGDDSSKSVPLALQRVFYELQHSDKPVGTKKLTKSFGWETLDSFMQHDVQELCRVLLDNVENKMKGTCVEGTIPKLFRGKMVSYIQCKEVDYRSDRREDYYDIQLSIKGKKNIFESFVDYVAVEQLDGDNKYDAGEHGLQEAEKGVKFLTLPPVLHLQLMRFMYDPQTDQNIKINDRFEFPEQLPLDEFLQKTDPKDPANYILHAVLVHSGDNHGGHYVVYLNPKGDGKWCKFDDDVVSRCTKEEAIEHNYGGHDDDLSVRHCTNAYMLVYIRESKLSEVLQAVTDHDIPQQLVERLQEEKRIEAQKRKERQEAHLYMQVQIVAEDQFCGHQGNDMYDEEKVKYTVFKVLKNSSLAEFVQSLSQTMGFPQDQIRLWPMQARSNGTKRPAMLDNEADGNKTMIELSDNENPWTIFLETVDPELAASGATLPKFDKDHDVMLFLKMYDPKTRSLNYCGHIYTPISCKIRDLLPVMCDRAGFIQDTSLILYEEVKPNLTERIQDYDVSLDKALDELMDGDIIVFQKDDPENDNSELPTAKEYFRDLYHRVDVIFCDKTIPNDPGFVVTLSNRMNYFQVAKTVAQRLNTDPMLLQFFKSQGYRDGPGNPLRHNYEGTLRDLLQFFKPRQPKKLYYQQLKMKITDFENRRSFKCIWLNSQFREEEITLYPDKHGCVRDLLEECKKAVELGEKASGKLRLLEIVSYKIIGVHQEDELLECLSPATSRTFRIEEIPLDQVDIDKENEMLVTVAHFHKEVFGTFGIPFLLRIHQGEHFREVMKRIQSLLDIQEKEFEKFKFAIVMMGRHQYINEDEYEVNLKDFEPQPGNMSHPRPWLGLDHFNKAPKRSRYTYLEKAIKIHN

Q: With `Cc1cc(-n2c(Cl)cc3c(=O)n(CC4(O)CCN(C(=O)[C@]5(C)C[C@H]5C(F)(F)F)CC4)cnc32)ccc1[C@H]1CO[C@H](C)CN1` (single isomer, unassigned) [Example 62] as the molecule, how does the IC50 [1, 8] read?
A: Its IC50 is 0.038 µM.

Q: And the IC50 [1, 9]?
A: The IC50 was less than 0.1 µM.

Q: And the IC50 [1, 10]?
A: The IC50 was 0.038 µM.

Q: What about the IC50 [2] of the same molecule?
A: Its IC50 is 100 nM.

Q: Which results are given for `CC[C@H]1CN[C@H](c2ccc(-n3c(Cl)cc4c(=O)n(CC5(O)CCN(C(=O)[C@]6(C)C[C@H]6C(F)(F)F)CC5)cnc43)cc2)CO1` (single isomer, unassigned) [Example 66, 6-Chloro-7-(4-((3R,6S)-6-ethylmorpholin-3-yl)phenyl)-3-((4-hydroxy-1-((1 S,2S)-1-methyl-2-(trifluoromethyl)cyclopropane-1-carbonyl)piperidin-4-yl)methyl)-3,7-dihydro-4H-pyrrolo[2,3-d]pyrimidin-4-one or 6-chloro-7-(4-((3R,6S)-6-ethylmorpholin-3-yl)phenyl)-3-((4-hydroxy-1-((1R,2R)-1-methyl-2-(trifluoromethyl)cyclopropane-1-carbonyl)piperidin-4-yl)methyl)-3,7-dihydro-4H-pyrrolo[2,3-d]pyrimidin-4-one]?
A: IC50 [1, 8]: 0.063 µM; IC50 [1, 9]: < 0.1 µM; IC50 [1, 10]: 0.063 µM; IC50 [2]: 74 nM

Q: Which results are given for `O=C(C[C@H](c1ccccc1)C(F)F)N1CCC(O)(Cn2cnc3c(cc(Cl)n3-c3ccc([C@H]4COCCN4)cc3)c2=O)CC1` (single isomer, unassigned) [Example 82]?
A: IC50 [1, 8]: 0.006 µM; IC50 [1, 9]: < 0.1 µM; IC50 [1, 10]: 0.006 µM; IC50 [2]: 9.4 nM

Q: For `CC1(C(=O)N2CCC(O)(Cn3cnc4c(cc(Cl)n4-c4cccc(N5CCOCC5)c4)c3=O)CC2)CC1` [Comparative Example, reference compound], which IC50 [1, 8] is on record?
A: The IC50 was 0.19 µM.

Q: What about the IC50 [2] of the same molecule?
A: The IC50 was greater than 50000 nM.

Q: And the solubility kinetic at 90 min [3]?
A: The solubility kinetic at 90 min was 151 µM (≈ 79.4 µg/mL).

Q: And the “Liver Microsomes: CLhep Human” value [4]?
A: Its value is 14.5 mL/min/kg.

Q: And the “Liver Microsomes: CLhep Rat” value [5]?
A: The value was 27 mL/min/kg.

Q: What about the “Liver Microsomes: CLhep Mouse” value [6] of the same molecule?
A: Its value is 63.9 mL/min/kg.

Q: And the “Liver Microsomes: CLhep Dog” value [7]?
A: The value was 22.3 mL/min/kg.

Q: Which IC50 [1, 8] does the source give for `C[C@H]1OCCN[C@@H]1c1ccc(-n2c(Cl)cc3c(=O)n(CC4(O)CCN(C(=O)c5ccc(Cl)cc5)CC4)cnc32)cc1` [Example 8, 6-Chloro-3-((1-(4-chlorobenzoyl)-4-hydroxypiperidin-4-yl)methyl)-7-(4-((2R,3R)-2-methylmorpholin-3-yl)phenyl)-3,7-dihydro-4H-pyrrolo[2,3-d]pyrimidin-4-one] here?
A: Its IC50 is 0.077 µM.

Q: And the IC50 [1, 9]?
A: Its IC50 is less than 0.1 µM.

Q: And the IC50 [1, 10]?
A: The IC50 was 0.077 µM.

Q: And the IC50 [2]?
A: The IC50 was 66 nM.

Q: With `Cc1cc(-n2c(Cl)cc3c(=O)n(CC4(O)CCN(C(=O)C[C@H](c5ccccc5)C(F)(F)F)CC4)cnc32)ccc1[C@H]1CO[C@H](C)CN1` [Example 14, 6-Chloro-3-((4-hydroxy-1-((R)-4,4,4-trifluoro-3-phenylbutanoyl)piperidin-4-yl)methyl)-7-(3-methyl-4-((3S,6R)-6-methylmorpholin-3-yl)phenyl)-3,7-dihydro-4H-pyrrolo[2,3-d]pyrimidin-4-one] as the molecule, how does the IC50 [1, 8] read?
A: The IC50 was 0.018 µM.

Q: And the IC50 [1, 9]?
A: The IC50 was less than 0.1 µM.

Q: What about the IC50 [1, 10] of the same molecule?
A: The IC50 was 0.018 µM.

Q: And the IC50 [2]?
A: Its IC50 is 40 nM.

Q: For `CC1(C(=O)N2CCC(O)(Cn3cnc4c(cc(Cl)n4-c4ccc([C@H]5COCCN5)cc4)c3=O)CC2)CC1C(F)(F)F` (stereo partly drawn) [Example 83, 6-Chloro-3-((4-hydroxy-1-(1-methyl-2-(trifluoromethyl)cyclopropane-1-carbonyl)piperidin-4-yl)methyl)-7-(4-((S)-morpholin-3-yl)phenyl)-3,7-dihydro-4H-pyrrolo[2,3-d]pyrimidin-4-one], which IC50 [1, 8] is on record?
A: The IC50 was 0.028 µM.

Q: And the IC50 [1, 9]?
A: Its IC50 is less than 0.1 µM.

Q: And the IC50 [1, 10]?
A: Its IC50 is 0.028 µM.

Q: What about the IC50 [2] of the same molecule?
A: Its IC50 is 76 nM.

Q: With `CC[C@H]1CN[C@H](c2ccc(-n3c(Cl)cc4c(=O)n(CC5(O)CCN(C(=O)C6(C)CC6)CC5)cnc43)cc2)CO1` [Example 106, 6-Chloro-7-(4-((3R,6S)-6-ethylmorpholin-3-yl)phenyl)-3-((4-hydroxy-1-(1-methylcyclopropane-1-carbonyl)piperidin-4-yl)methyl)-3,7-dihydro-4H-pyrrolo[2,3-d]pyrimidin-4-one] as the molecule, how does the IC50 [1, 9] read?
A: The IC50 was 0.1 to 0.25 µM.

Q: And the IC50 [1, 10]?
A: Its IC50 is 0.121 µM.

Q: Which IC50 [1, 9] does the source give for `C[C@@H]1CN[C@@H](c2ccc(-n3c(Cl)cc4c(=O)n(CC5(O)CCN(C(=O)C6(C)CC6)CC5)cnc43)cc2)CO1` [Example 107, 6-Chloro-3-((4-hydroxy-1-(1-methylcyclopropane-1-carbonyl)piperidin-4-yl)methyl)-7-(4-((3S,6R)-6-methylmorpholin-3-yl)phenyl)-3,7-dihydro-4H-pyrrolo[2,3-d]pyrimidin-4-one] here?
A: Its IC50 is less than 0.1 µM.

Q: And the IC50 [1, 10]?
A: The IC50 was 0.093 µM.

Q: For `C[C@@H]1CN[C@@H](c2ccc(-n3c(Cl)cc4c(=O)n(CC5(O)CCN(C(=O)[C@]6(C)C[C@H]6C(F)(F)F)CC5)cnc43)cc2)CO1` [Example 108, 6-Chloro-3-((4-hydroxy-1-((1R,2R)-1-methyl-2-(trifluoromethyl)cyclopropane-1-carbonyl)piperidin-4-yl)methyl)-7-(4-((3S,6R)-6-methylmorpholin-3-yl)phenyl)-3,7-dihydro-4H-pyrrolo[2,3-d]pyrimidin-4-one], which IC50 [1, 9] is on record?
A: Its IC50 is less than 0.1 µM.

Q: And the IC50 [1, 10]?
A: Its IC50 is 0.042 µM.

Q: Which results are given for `C[C@@H]1CN[C@@H](c2ccc(-n3c(Cl)cc4c(=O)n(CC5(O)CCN(C(=O)[C@@]6(C)C[C@@H]6C(F)(F)F)CC5)cnc43)cc2)CO1` [Example 109, 6-Chloro-3-((4-hydroxy-1-((1S,2S)-1-methyl-2-(trifluoromethyl)cyclopropane-1-carbonyl)piperidin-4-yl)methyl)-7-(4-((3S,6R)-6-methylmorpholin-3-yl)phenyl)-3,7-dihydro-4H-pyrrolo[2,3-d]pyrimidin-4-one]?
A: IC50 [1, 9]: 0.1 to 0.25 µM; IC50 [1, 10]: 0.182 µM

Q: Which IC50 [1, 9] does the source give for `C[C@H]1CN[C@H](c2ccc(-n3c(Cl)cc4c(=O)n(CC5(O)CCN(C(=O)[C@@]6(C)C[C@@H]6C(F)F)CC5)cnc43)cc2)CO1` [Example 111, 6-Chloro-3-((1-((1 S,2S)-2-(difluoromethyl)-1-methylcyclopropane-1-carbonyl)-4-hydroxypiperidin-4-yl)methyl)-7-(4-((3R,6S)-6-methylmorpholin-3-yl)phenyl)-3,7-dihydro-4H-pyrrolo[2,3-d]pyrimidin-4-one] here?
A: Its IC50 is 0.1 to 0.25 µM.

Q: What about the IC50 [1, 10] of the same molecule?
A: The IC50 was 0.145 µM.

Q: For `C[C@H]1CN[C@H](c2ccc(-n3c(Cl)cc4c(=O)n(CC5(O)CCN(C(=O)[C@]6(C)C[C@H]6C(F)F)CC5)cnc43)cc2)CO1` [Example 112, 6-Chloro-3-((1-((1R,2R)-2-(difluoromethyl)-1-methylcyclopropane-1-carbonyl)-4-hydroxypiperidin-4-yl)methyl)-7-(4-((3R,6S)-6-methylmorpholin-3-yl)phenyl)-3,7-dihydro-4H-pyrrolo[2,3-d]pyrimidin-4-one], which IC50 [1, 9] is on record?
A: Its IC50 is less than 0.1 µM.

Q: And the IC50 [1, 10]?
A: Its IC50 is 0.018 µM.
